These results are taken from article PMC8964799, “Inhibition of triple negative breast cancer-associated inflammation, tumor growth and brain colonization by targeting monoacylglycerol lipase” (Scientific Reports, 2022).

The target of assay [1] is T1, human monoacylglycerol lipase (hMAGL) (Homo sapiens, UniProt Q99685).
T1 construct: gene MGLL; highly purified recombinant hMAGL
T1 sequence (Q99685 1-303): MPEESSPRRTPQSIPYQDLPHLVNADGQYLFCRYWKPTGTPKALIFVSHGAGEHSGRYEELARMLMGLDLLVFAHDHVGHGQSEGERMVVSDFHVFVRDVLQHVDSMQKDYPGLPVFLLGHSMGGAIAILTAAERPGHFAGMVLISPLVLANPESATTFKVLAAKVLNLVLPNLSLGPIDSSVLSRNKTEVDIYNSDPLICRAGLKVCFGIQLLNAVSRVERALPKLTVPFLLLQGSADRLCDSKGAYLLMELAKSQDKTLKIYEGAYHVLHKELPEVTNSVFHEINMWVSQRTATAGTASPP
Put plainly: target-based real-time 1H NMR (chemical shift perturbation, covalent adduct formation and reactivation; residence time […] h); IC50 on recombinant hMAGL also printed. The class given is biochemical. To be noted: cited from earlier work.

For assay [2], the target named is T1, human monoacylglycerol lipase (hMAGL). Put plainly: target-based real-time 1H NMR (chemical shift perturbation, covalent adduct formation and reactivation; residence time). The class given is binding.

Broadly, the IC50 is the concentration at which inhibition is half-maximal. As for AM9928, the IC50 in assay [1] was 8.9 nM. As for AM4301, in assay [2], the “target-based real-time 1H NMR (chemical shift perturbation, covalent adduct form)” value is 1.4 h.
